Source: US20240376084A1, “INHIBITORS OF ALPHA-HEMOLYSIN OF STAPHYLOCOCCUS AUREUS” (Helmholtz-Zentrum Fur Infektionsforschung GmbH, priority 2021, published 2024)

Experiments:
[1] = target: hemolysin alpha from Staphylococcus aureus (Staphylococcus aureus, UniProt P09616); test: cell-based
[2] = target: S. aureus Alpha hemolysin (Staphylococcus aureus, UniProt P09616); test: cell-based
Chain of S. aureus Alpha hemolysin (P09616 27-319 limits assumed): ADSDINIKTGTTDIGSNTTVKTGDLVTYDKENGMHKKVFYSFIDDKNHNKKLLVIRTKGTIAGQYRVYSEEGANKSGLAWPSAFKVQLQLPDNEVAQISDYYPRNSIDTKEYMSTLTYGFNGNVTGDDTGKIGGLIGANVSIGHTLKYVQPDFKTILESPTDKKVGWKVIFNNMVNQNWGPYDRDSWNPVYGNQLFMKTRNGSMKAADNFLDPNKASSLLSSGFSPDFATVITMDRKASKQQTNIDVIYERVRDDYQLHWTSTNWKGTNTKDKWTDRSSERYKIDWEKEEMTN

Chain of hemolysin alpha from Staphylococcus aureus (P09616 27-319 limits assumed): as above

| Compound | IC50 [1] [nM] | EC50 ([2]; A549-LDH Assay activity) [nM] | EC50 [1] [nM] | EC50 ([2]; LDH Assay EC50) [nM] |
| --- | --- | --- | --- | --- |
| Cc1ccccc1-c1c(C)cc(NS(=O)(=O)c2cc3[nH]c(=O)c(=O)[nH]c3cc2C)cc1C [Compound 125, 7-methyl-2,3-dioxo-N-(2,2′,6-trimethyl-[1,1′-biphenyl]-4-yl)-1,2,3,4-tetrahydroquinoxaline-6-sulfonamide] | 100 to 1000 | 1000 to 6000 |  |  |
| Cc1cc2[nH]c(=O)c(=O)[nH]c2c(F)c1S(=O)(=O)Nc1ccc(-c2cccc(Cl)c2)c(Cl)c1 [Compound 43, N-(2,3′-dichloro-[1,1′-biphenyl]-4-yl)-5-fluoro-7-methyl-2,3-dioxo-1,2,3,4-tetrahydroquinoxaline-6-sulfonamide] | 30 to 100 | 1000 to 6000 |  |  |
| Cc1cc2[nH]c(=O)c(=O)[nH]c2cc1S(=O)(=O)Nc1ccc(-c2ccccc2CO)c(Cl)c1 [Compound 78, N-(2-chloro-2′-(hydroxymethyl)-[1,1′-biphenyl]-4-yl)-7-methyl-2,3-dioxo-1,2,3,4-tetrahydroquinoxaline-6-sulfonamide] | 100 to 1000 | 100 to 1000 |  |  |
| Cc1cc2[nH]c(=O)c(=O)[nH]c2cc1S(=O)(=O)Nc1ccc(-c2cccc(C(F)(F)F)c2)c(Cl)c1 [Compound 316, N-[3-chloro-4-[3-(trifluoromethyl)phenyl]phenyl]-7-methyl-2,3-dioxo-1,4-dihydroquinoxaline-6-sulfonamide] |  | 1000 to 6000 | 30 to 100 |  |
| Cc1cc2[nH]c(=O)c(=O)[nH]c2cc1S(=O)(=O)Nc1ccc(-c2ccc3c(c2)CCNC3=O)c(Cl)c1 [Compound 334, N-[3-chloro-4-(1-oxo-3,4-dihydro-2H-isoquinolin-6-yl)phenyl]-7-methyl-2,3-dioxo-1,4-dihydroquinoxaline-6-sulfonamide] |  | 1000 to 6000 | 100 to 1000 |  |
| Cc1cc2[nH]c(=O)c(=O)[nH]c2cc1S(=O)(=O)Nc1ccc(-c2cccc(S(C)(=O)=O)c2)c(Cl)c1 [Compound 313, N-[3-chloro-4-(3-methylsulfonylphenyl)phenyl]-7-methyl-2,3-dioxo-1,4-dihydroquinoxaline-6-sulfonamide] |  | 100 to 1000 | 100 to 1000 |  |
| Cc1cc2[nH]c(=O)c(=O)[nH]c2cc1S(=O)(=O)Nc1ccc(OC(F)(F)F)cc1 [drawing 469 (R^2 = CH3)] |  |  | 37 | 14 |
| CCc1cc2[nH]c(=O)c(=O)[nH]c2cc1S(=O)(=O)Nc1ccc(C2CC2)cc1 [Compound 67, N-(4-cyclopropylphenyl)-7-ethyl-2,3-dioxo-1,2,3,4-tetrahydroquinoxaline-6-sulfonamide] | 30 to 100 | 30 to 100 |  |  |
| O=c1[nH]c2cc(Cl)c(S(=O)(=O)Nc3ccc(-c4ccccc4)cc3)cc2[nH]c1=O [Compound 98, N-([1,1′-biphenyl]-4-yl)-7-chloro-2,3-dioxo-1,2,3,4-tetrahydroquinoxaline-6-sulfonamide] | 100 to 1000 | 100 to 1000 |  |  |
| Cc1cc2[nH]c(=O)c(=O)[nH]c2cc1S(=O)(=O)Nc1ccc(-c2ccc(F)cc2)c(OC(F)(F)F)c1 [Compound 327, N-[4-(4-fluorophenyl)-3-(trifluoromethoxy)phenyl]-7-methyl-2,3-dioxo-1,4-dihydroquinoxaline-6-sulfonamide] |  | 100 to 1000 | 100 to 1000 |  |
| Cc1cc2[nH]c(=O)c(=O)[nH]c2cc1S(=O)(=O)Nc1ccc(Br)cc1 [Compound 97, N-(4-bromophenyl)-7-methyl-2,3-dioxo-1,2,3,4-tetrahydroquinoxaline-6-sulfonamide] | 100 to 1000 | 30 to 100 |  |  |
| N#Cc1cc2[nH]c(=O)c(=O)[nH]c2cc1S(=O)(=O)Nc1ccc(OC(F)(F)F)cc1 [Compound 216, 7-cyano-2,3-dioxo-N-(4-(trifluoromethoxy)phenyl)-1,2,3,4-tetrahydroquinoxaline-6-sulfonamide] |  | 100 to 1000 | 100 to 1000 |  |
| Cc1cc2[nH]c(=O)c(=O)[nH]c2cc1S(=O)(=O)Nc1ccc(-c2cc(F)ccc2F)c(Cl)c1 [Compound 295, N-[3-chloro-4-(2,5-difluorophenyl)phenyl]-7-methyl-2,3-dioxo-1,4-dihydroquinoxaline-6-sulfonamide] |  | 100 to 1000 | 30 to 100 |  |
| O=c1[nH]c2cc(Cl)c(S(=O)(=O)Nc3ccc(OC(F)(F)F)cc3)cc2[nH]c1=O [Compound 47, 7-chloro-2,3-dioxo-N-(4-(trifluoromethoxy)phenyl)-1,2,3,4-tetrahydroquinoxaline-6-sulfonamide] | 30 to 100 | 30 to 100 |  |  |
| Cc1cccc(-c2ccc(NS(=O)(=O)c3cc4[nH]c(=O)c(=O)[nH]c4cc3C)cc2Cl)c1 [Compound 23, N-(2-chloro-3′-methyl-[1,1′-biphenyl]-4-yl)-7-methyl-2,3-dioxo-1,2,3,4-tetrahydroquinoxaline-6-sulfonamide] | < 30 | 30 to 100 |  |  |
| Cc1cc2[nH]c(=O)c(=O)[nH]c2cc1S(=O)(=O)Nc1ccc(-c2ccsc2)c(Cl)c1 [Compound 7, N-(3-chloro-4-(thiophen-3-yl)phenyl)-7-methyl-2,3-dioxo-1,2,3,4-tetrahydroquinoxaline-6-sulfonamide] | < 30 | 100 to 1000 |  |  |

| Compound | IC50 [1] [nM] | EC50 ([2]; A549-LDH Assay activity) [nM] | EC50 [1] [nM] | EC50 ([2]; LDH Assay EC50) [nM] |
| --- | --- | --- | --- | --- |
| COc1ccc(-c2ccc(NS(=O)(=O)c3cc4[nH]c(=O)c(=O)[nH]c4cc3C)cc2Br)cc1F [Compound 302, N-[3-bromo-4-(3-fluoro-4-methoxy-phenyl)phenyl]-7-methyl-2,3-dioxo-1,4-dihydroquinoxaline-6-sulfonamide] |  | < 30 | < 30 |  |
| Cc1cc2[nH]c(=O)c(=O)[nH]c2cc1S(=O)(=O)Nc1ccc(-c2ccc(F)c(C(N)=O)c2)c(Cl)c1 [Compound 389, 5-[2-chloro-4-[(7-methyl-2,3-dioxo-1,4-dihydroquinoxalin-6-yl)sulfonylamino]phenyl]-2-fluoro-benzamide] |  | 30 to 100 | < 30 |  |
| Cc1cc2[nH]c(=O)c(=O)[nH]c2cc1S(=O)(=O)Nc1cc(C)c(-c2cccc(Cl)c2)c(C)c1 [Compound 57, N-(3′-chloro-2,6-dimethyl-[1,1′-biphenyl]-4-yl)-7-methyl-2,3-dioxo-1,2,3,4-tetrahydroquinoxaline-6-sulfonamide] | 30 to 100 | 30 to 100 |  |  |
| Cc1cc2[nH]c(=O)c(=O)[nH]c2cc1S(=O)(=O)Nc1ccc(-c2ccc(C(F)(F)F)nc2)c(Cl)c1 [Compound 275, N-[3-chloro-4-[6-(trifluoromethyl)-3-pyridyl]phenyl]-7-methyl-2,3-dioxo-1,4-dihydroquinoxaline-6-sulfonamide] |  | 1000 to 6000 | 100 to 1000 |  |
| O=c1[nH]c2cc(Cl)c(S(=O)(=O)Nc3ccc(-c4ccsc4)c(Cl)c3)cc2[nH]c1=O [Compound 32, 7-chloro-N-(3-chloro-4-(thiophen-3-yl)phenyl)-2,3-dioxo-1,2,3,4-tetrahydroquinoxaline-6-sulfonamide] | < 30 | 100 to 1000 |  |  |
| Cc1cc2[nH]c(=O)c(=O)[nH]c2cc1S(=O)(=O)Nc1ccc(-c2cccc(C(N)=O)c2)c(Cl)c1 [Compound 245, 3-[2-chloro-4-[(7-methyl-2,3-dioxo-1,4-dihydroquinoxalin-6-yl)sulfonylamino]phenyl] benzamide] |  | 30 to 100 | < 30 |  |
| Cc1cc(NS(=O)(=O)c2cc3[nH]c(=O)c(=O)[nH]c3cc2C)ccc1C(C)C [Compound 117, N-(4-isopropyl-3-methylphenyl)-7-methyl-2,3-dioxo-1,2,3,4-tetrahydroquinoxaline-6-sulfonamide] | 100 to 1000 | 100 to 1000 |  |  |
| Cc1cc2[nH]c(=O)c(=O)[nH]c2cc1S(=O)(=O)Nc1ccc(Br)c(Cl)c1 [Compound 75, N-(4-bromo-3-chlorophenyl)-7-methyl-2,3-dioxo-1,2,3,4-tetrahydroquinoxaline-6-sulfonamide] | 100 to 1000 | 100 to 1000 |  |  |
| Cc1cc(C)cc(-c2ccc(NS(=O)(=O)c3cc4[nH]c(=O)c(=O)[nH]c4cc3C)cc2Cl)c1 [Compound 248, N-[3-chloro-4-(3,5-dimethylphenyl)phenyl]-7-methyl-2,3-dioxo-1,4-dihydroquinoxaline-6-sulfonamide] |  | 100 to 1000 | 100 to 1000 |  |
| O=c1[nH]c2cc(F)c(S(=O)(=O)Nc3ccc(C4CCCCC4)cc3)cc2[nH]c1=O [Compound 71, N-(4-cyclohexylphenyl)-7-fluoro-2,3-dioxo-1,2,3,4-tetrahydroquinoxaline-6-sulfonamide] | 100 to 1000 | 100 to 1000 |  |  |
| O=c1[nH]c2cc(C3CC3)c(S(=O)(=O)Nc3cnc(-c4ccc(F)cc4)c(Cl)c3)cc2[nH]c1=O [Compound 379, N-[5-chloro-6-(4-fluorophenyl)-3-pyridyl]-7-cyclopropyl-2,3-dioxo-1,4-dihydroquinoxaline-6-sulfonamide] |  | 100 to 1000 | 100 to 1000 |  |
| Cc1cc2[nH]c(=O)c(=O)[nH]c2cc1S(=O)(=O)Nc1ccc(-c2ccc(OC(C)C)nc2)c(Cl)c1 [Compound 291, N-[3-chloro-4-(6-isopropoxy-3-pyridyl)phenyl]-7-methyl-2,3-dioxo-1,4-dihydroquinoxaline-6-sulfonamide] |  | 100 to 1000 | 100 to 1000 |  |
| Cc1cc2[nH]c(=O)c(=O)[nH]c2cc1S(=O)(=O)Nc1ccc(-c2ccc3c(c2)N(C)CCO3)c(Cl)c1 [Compound 354, N-[3-chloro-4-(4-methyl-2,3-dihydro-1,4-benzoxazin-6-yl)phenyl]-7-methyl-2,3-dioxo-1,4-dihydroquinoxaline-6-sulfonamide] |  | 100 to 1000 | 30 to 100 |  |
| Cc1cc2[nH]c(=O)c(=O)[nH]c2cc1S(=O)(=O)Nc1ccc(C2CCC2)cc1 [Compound 362, N-(4-cyclobutylphenyl)-7-methyl-2,3-dioxo-1,4-dihydroquinoxaline-6-sulfonamide] |  | 30 to 100 | 100 to 1000 |  |
| O=c1[nH]c2cc(F)c(S(=O)(=O)Nc3ccc(-c4ccc(F)cc4)c(Cl)c3)cc2[nH]c1=O [Compound 18, N-(2-chloro-4′-fluoro-[1,1′-biphenyl]-4-yl)-7-fluoro-2,3-dioxo-1,2,3,4-tetrahydroquinoxaline-6-sulfonamide] | < 30 | 30 to 100 |  |  |
| Cc1cc2[nH]c(=O)c(=O)[nH]c2cc1S(=O)(=O)Nc1ccc(C2=CCCCC2)c(Cl)c1 [Compound 274, N-[3-chloro-4-(cyclohexen-1-yl)phenyl]-7-methyl-2,3-dioxo-1,4-dihydroquinoxaline-6-sulfonamide] |  | 30 to 100 | 30 to 100 |  |
